Reference: patent US20240003908A1, “POLYOL BIOMARKERS FOR CONGENITAL DISORDERS OF GLYCOSYLATION” (Mayo Foundation for Medical Education and Research, priority 2020, published 2024)

Legend:
Assay type in all cases: in vivo, human
[1] = system: urine mannitol; assay: Urine mannitol (GC/MS) in a PMM2-CDG pediatric patient on oral epalrestat therapy; settings: for urine mannitol level: before therapy 648.6, controls <20
Experimental: Clinical studies: Epalrestat was used as an N of 1 study for a single pediatric patient with PMM2-CDG. An open label, single patient compassionate use study designed to assess the safety and tolerability of oral epalrestat therapy in a child with PMM2-CDG. The patient received […]. Concomitant medications, vital signs, blood draw for serum chemistry and hematology, and blood levels of epalrestat were collected at each study visit during a 6 month period to evaluate the safety and tolerability of oral epalrestat therapy in a child with PMM2-CDG. The Nijmegen Pediatric CDG Rating Scale (NPCRS) assessment was administered at the start of the study and at 6 months. Urine polyols were collected at the start, at 4 months, and at 6 months of therapy, and were measured as described elsewhere (Jansen et al., Clin Chim Acta 1986, 157:277-294). Briefly, 200 μl urine specimens were spiked with a mixture of labeled internal standards, allowed to equilibrate, and evaporated. […] Specimens were analyzed by GC/MS, selected ion monitoring using ammonia chemical ionization and a stable isotope dilution method. In general, the following protocol was used: • Creatinine (CR) values (mg/dL) were determined for all samples. • Multiplication factors were calculated for each patient sample. • 100 μL of Polyol QC Mix for the QC Standard and 100 μL water were pipetted into a labeled 16×100 screw-cap glass tube. • 200 μL each of low control and high control were pipetted into corresponding labeled 16×100 mm screw-cap glass tubes. • 200 μL of each patient sample was pipetted into a corresponding labeled 16×100 mm screw cap glass tube. […]
Urine sorbitol and mannitol levels also were quantified using similar processing of samples and GC/MS settings, monitoring ions specific for sorbitol and mannitol for peak area ratio calculations.
Patient assessment: Prior to the first dose of epalrestat and at 1, 2, 3, 6, 8, 9, 12 months during treatment, concomitant medications and vital signs were recorded and the patient was evaluated using the NPCRS. […]

[2] = system: blood transferrin glycosylation; assay: Blood transferrin glycoform ratio analysis by mass spectrometry in patient P1; settings: for A-oligo/Di-oligo: control ratio ≤ 0.01; for Mono-oligo/Di-oligo: control ratio ≤ 0.06
Experimental: (§1) Patient assessment: Prior to the first dose of epalrestat and at 1, 2, 3, 6, 8, 9, 12 months during treatment, concomitant medications and vital signs were recorded and the patient was evaluated using the NPCRS. In addition, blood was drawn for serum chemistry, hematology, and plasma levels of epalrestat. Urine was collected for polyol measurement at baseline and twice over the course of 12 months of therapy.
(§2) Safety and efficacy: Safety measures included vital signs, change in CBC, liver function (INR, bilirubin, transaminases, and albumin) in blood, change in liver elastography, and following the pharmacokinetic profile of epalrestat. The efficacy of epalrestat was studied by clinical follow up (physical exam, NPCRS, ICARS), standard laboratory tests, and transferrin glycoform analysis by mass spectrometry.

[3] = system: child with PMM2-CDG; assay: Single patient (P1) study: clinical efficacy (ICARS, NPCRS, BMI, weight)
Experimental: Prospectively collected clinical and laboratory data in 24 PMM2-CDG patients: The genetic, laboratory, metabolic, and clinical data of 24 PMM2-CDG patients were evaluated (TABLES 2A and 2B). Disease severity was assessed by Nijmegen Pediatric CDG Rating Scale (NPCRS), (most severe=82; mild (0-14), moderate (15-25), severe (>26)) (Achouitar et al., J Inherit Metab Dis 34:923-927, 2011; and Martinez-Monseny et al., Ann Neurol 85:740-751, 2019). Patient P1 and twin patients P4 and P5 also were discussed elsewhere (Qian et al., JIMD Rep 56:27-33, 2020; and Jaeken et al., Ped Res 14:179, 1980). P1, enrolled in a single IND clinical trial, was additionally evaluated by the International cooperative ataxia rating scale (ICARS) (Trouillas et al., J Neurol Sci 145:205-211, 1997), which assesses limb ataxia, dysarthria, posture and gait disturbances, and oculomotor disorders (0=normal; 100=most severe). Urinary polyols including sorbitol and mannitol were analyzed by GC/MS in 23 out of the 24 PMM2-CDG patients (patient P6 was deceased). In addition, functional in vitro data was collected from the fibroblasts of P1-P6, P8, P10, P17, P19, and P24.
Study design: An open label, single patient (P1) compassionate use study was designed to assess the safety and tolerability of oral epalrestat therapy in a child with PMM2-CDG.
as §1
Drug administration: Epalrestat was administered orally, 3 times per day (TID) before meals in a divided dose (0.8 mg/kg/day; 5 mg TID) of epalrestat (Ono Pharmaceuticals, Osaka, Japan) starting on Day 1 of the study.
as §2

Compound: CC(/C=C1\SC(=S)N(CC(=O)O)C1=O)=C\c1ccccc1 [epalrestat]
- urine mannitol level ([1]; 6 months of epalrestat therapy): 25.09 mmol/mol creatinine
- urine mannitol level ([1]; after 3 months of epalrestat therapy): 37.32 mmol/mol creatinine
- urinary mannitol level ([1]; at 4 months of epalrestat treatment, pretreatment 648.6, control less than 10): 37.32 mmol/mol creatinine
- A-oligo/Di-oligo ([2]; patient P1, 1st month of epalrestat, prior to first dose 0.005): 0.005
- Mono-oligo/Di-oligo ([2]; patient P1, 1st month of epalrestat, prior to first dose 0.09): 0.14
- A-oligo/Di-oligo ([2]; patient P1, 2nd month): 0.01
- Mono-oligo/Di-oligo ([2]; patient P1, 2nd month): 0.07
- A-oligo/Di-oligo ([2]; patient P1, 3rd month): 0.004
- Mono-oligo/Di-oligo ([2]; patient P1, 3rd month): 0.08
- A-oligo/Di-oligo ([2]; patient P1, 6th month): 0.003
- Mono-oligo/Di-oligo ([2]; patient P1, 6th month): 0.06
- A-oligo/Di-oligo ([2]; patient P1, 8th month): 0.004
- Mono-oligo/Di-oligo ([2]; patient P1, 8th month): 0.06
- A-oligo/Di-oligo ([2]; patient P1, 9th month): 0.004
- Mono-oligo/Di-oligo ([2]; patient P1, 12th month, after dose correction): 0.06
- A-oligo/Di-oligo ([2]; patient P1, 12th month): 0.004
- body mass index (BMI) ([3]; patient P1, 12-month-follow-up, previous trough 14.8 (30th percentile)): 18.5
- ICARS score ([3]; patient P1, epalrestat 0.8 mg/kg/day, within 12 months, from a score of 56): 42
- NPCRS score ([3]; patient P1, months 6, 9, and 12, baseline 21-24): 20-21
